Drawing on PubChem BioAssay AID504646 (Southern Research Specialized Biocontainment Screening …, 2011), this text covers growth inhibition for 38 compounds.

Activity calls are given as the source filed them. No rule for the calls is given here.

A short description of the experiment: M. tuberculosis growth inhibition in 7H9, dose response, 7H9 media, purified and synthesized samples, set 3 (AID 504646). Conditions: Mycobacterium tuberculosis growth in 7H9 media; at 25 µM (top of the series).
In the case of `Cc1c[nH]c(=S)[nH]c1=O`, the growth inhibition was -6.2% (inactive).

On to `O=C(C1CCC(CNc2c(N3CCCCC3)c(=O)c2=O)CC1)N1CCCCC1` (stereo not drawn), for which the growth inhibition is -2.59% (inactive).

Regarding `O=C(CSc1ncccn1)NC1CCCCC1`, the growth inhibition is -5.77% (inactive).

Regarding `COc1ccc(-c2noc(CSc3nc(N)c(-c4ccccc4)c(=O)[nH]3)n2)cc1OC`, the growth inhibition was -5.09% (inactive).

For the compound `Nc1cc(=O)[nH]c(SCC(=O)Nc2ccc(Oc3ccccc3)cc2)n1`, the growth inhibition is -0.36% (inactive).

Turning to `CCc1cc(=O)[nH]c(SCC(=O)Nc2ccc3c(c2)OCCO3)n1`, the growth inhibition was 3.59% (inactive).

On to `Cc1nc(SCC(=O)N(C)c2ccccc2)[nH]c(=O)c1C`, for which the growth inhibition is -13.6% (inactive).

As for `CCOc1ccc(NC(=O)c2ccc(CNc3c(N4CCCC4)c(=O)c3=O)cc2)cc1`, the growth inhibition was 0.32% (inactive).

In the case of `Cc1cc(=O)[nH]c(=S)[nH]1`, the growth inhibition was -1.28% (inactive).

For the compound `O=c1[nH]c(=S)[nH]c2ccccc12`, the growth inhibition was -8.06% (inactive).

With `COc1ccc(NC(=O)CSc2nc(NS(=O)(=O)c3ccc(C)cc3)cc(=O)[nH]2)cc1`, the growth inhibition is 1.44% (inactive).

In the case of `C=CCn1c(SCC(=O)Nc2cccc3ccccc23)nc(O)c(CC)c1=O`, the growth inhibition was 26.9% (inactive).

For the compound `Cc1ccc(NC(=O)CSc2nc(N)c(-c3ccccc3)c(=O)[nH]2)cc1Cl`, the growth inhibition is -2.34% (inactive).

`CCOc1ccc(NC(=O)CSc2nc(N)c(-c3ccccc3)c(=O)[nH]2)cc1`: the growth inhibition was 0.19% (inactive).

For `Cc1[nH]c2ccccc2c1C(=O)COC(=O)c1ccc([N+](=O)[O-])s1`, the growth inhibition was -5.99% (inactive).

With `CCOC(=O)N1CCC(Nc2c(N3CCN(c4cccc(C(F)(F)F)c4)CC3)c(=O)c2=O)CC1`, the growth inhibition is -1.75% (inactive).

In the case of `Cc1nc(SCc2ccccc2Cl)[nH]c(=O)c1C`, the growth inhibition is -6.95% (inactive).

`CC(NC(=O)CSc1nc2ccccc2c(=O)[nH]1)c1ccccc1` (stereo not drawn): the growth inhibition is -9.84% (inactive).

Take `Cc1[nH]c(=S)[nH]c(=O)c1C`: the growth inhibition was -8.11% (inactive).

For the compound `CCCc1cc(=O)[nH]c(SCC(=O)Nc2cc3c(cc2C(C)=O)OCO3)n1`, the growth inhibition is 3.07% (inactive).

Turning to `CCSc1nc2ccccc2c(=O)[nH]1`, the growth inhibition is -4.76% (inactive).

Consider `O=C(CSc1ccccn1)NC1CCCCC1`, for which the growth inhibition is -4.91% (inactive).

Turning to `Cc1nc(SCC(N)=O)[nH]c(=O)c1C`, the growth inhibition is -2.97% (inactive).

For the compound `CCOC(=O)C(CC)Sc1ncnc2c1nnn2-c1ccc(F)cc1` (stereo not drawn), the growth inhibition was 12.2% (inactive).

`Cc1cc(C)cc(NC(=O)CSc2nc3c(c(=O)[nH]2)CN(Cc2ccc(F)cc2)CC3)c1`: the growth inhibition was -0.33% (inactive).

In the case of `COC(=O)c1ccc(CNc2c(N3CCCC3)c(=O)c2=O)cc1`, the growth inhibition was -13.4% (inactive).

For the compound `CC1CCN(C(=O)CSc2nc3ccccc3c(=O)[nH]2)CC1`, the growth inhibition is 2.14% (inactive).

In the case of `COC(=O)C(Nc1nc(SCC(=O)NC2CCCCC2)nc2ccccc12)c1ccccc1` (stereo not drawn), the growth inhibition is -0.22% (inactive).

On to `CCC(Sc1nc(=O)cc(N)n1-c1ccccc1)C(=O)Nc1cc(C)on1` (stereo not drawn), for which the growth inhibition is -3.83% (inactive).

For `CCOC(=O)N1CCC(Nc2c(Nc3cccc(CC)c3)c(=O)c2=O)CC1`, the growth inhibition was 17.3% (inactive).

Regarding `CCSc1nc(C)c(C)c(=O)[nH]1`, the growth inhibition was 1.07% (inactive).

Turning to `CCOc1ccc2nc(NC(=O)C(CC)Sc3nc(C)cc(=O)[nH]3)sc2c1` (stereo not drawn), the growth inhibition is 2.52% (inactive).

On to `Nc1cc(=O)[nH]c(SCC(=O)Nc2ccccc2-c2ccccc2)n1`, for which the growth inhibition was -1.58% (inactive).

With `Cc1cccc(N2CCN(C(=O)c3ccc(CNc4c(N5CCC(C)CC5)c(=O)c4=O)cc3)CC2C)c1` (stereo not drawn), the growth inhibition was -1.5% (inactive).

In the case of `Cc1cc(=O)[nH]c(SCC(=O)Nc2ncc(S(=O)(=O)c3ccc([N+](=O)[O-])cc3)s2)n1`, the growth inhibition is -1.38% (inactive).

`CN(C(=O)CSc1nc2ccccc2c(=O)[nH]1)C1CCCCC1`: the growth inhibition was -6.94% (inactive).

Take `Cc1ccc(NC(=O)CSc2nc(N)cc(=O)[nH]2)cc1Cl`: the growth inhibition is 2.55% (inactive).

`CCc1c(O)nc(SCC(=O)Nc2ccc(OC)cc2)n(C2CCCCC2)c1=O`: the growth inhibition is -2.19% (inactive).
